This is an account of results in paper PMC11530827, “Characterization of a cytochrome P450 that catalyzes the O-demethylation of lignin-derived benzoates” (The Journal of Biological Chemistry, 2024).

Assay [1] has as its system CYP199A4. Further details: method as in PMID 26969786. As to conditions: cited from earlier work.
For assay [2], the target named is T1, PbdA R84M (Rhodococcus jostii, UniProt Q0SCI3, R82M).
T1 construct: hexaHis (N, cleaved yes); made in house; host or cells: PbdA variant: E. coli BL-21 λ (DE3); PbdB: Rhodococcus jostii RHA1
T1 sequence (Q0SCI3 entry or part of it R82M): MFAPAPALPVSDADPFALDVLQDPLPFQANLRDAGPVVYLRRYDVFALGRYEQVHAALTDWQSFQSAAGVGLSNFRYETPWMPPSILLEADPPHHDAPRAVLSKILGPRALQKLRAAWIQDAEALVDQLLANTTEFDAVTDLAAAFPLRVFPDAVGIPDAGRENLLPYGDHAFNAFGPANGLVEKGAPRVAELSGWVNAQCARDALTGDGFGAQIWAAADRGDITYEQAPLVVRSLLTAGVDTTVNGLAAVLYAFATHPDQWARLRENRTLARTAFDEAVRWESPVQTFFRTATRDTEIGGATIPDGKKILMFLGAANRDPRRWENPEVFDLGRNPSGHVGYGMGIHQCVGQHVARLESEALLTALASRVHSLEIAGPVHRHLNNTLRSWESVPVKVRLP
Description: Substrate binding to PbdA R84M variant by spectral titration. Also on record: species or system Rhodococcus jostii RHA1. The protocol:
(§1) UV-visible spectroscopy was conducted with a Cary 60 spectrophotometer equipped with a thermostatted cuvette holder at 25 °C. Scans of purified proteins diluted in 20 mM Mops, I = 0.1 M, pH 7.2 were taken between 250 and 700 nm. Heme concentration was calculated as described previously ([35]). Carbon monoxide binding was determined by reduction of PbdA diluted in 20 mM Mops, I = 0.1 M, pH 7.2 as above by a few grains of […]. CO was bubbled into the reduced enzyme for approximately 60 s at a rate of one bubble per second. Dissociation constants (Kd) were determined by titration of ligands diluted into enzyme buffer from 1 M stocks prepared in dimethyl sulfoxide into PbdA diluted in 20 mM Mops, I = 0.1 M, pH 7.2. Spectra take upon addition of substrate were subtracted from the spectrum of the enzyme, and peak-to-trough distance was plotted by ligand concentration. Kd values were determined by fitting a hyperbolic equation to the data as described previously ([23], [36]). The proportion of high-spin heme iron was determined using the approximate peak-to-trough extinction coefficient (ε ≈ 100 mM^−1 cm^−1) ([36]).

In assay [3] the target is T2, PbdA S237A (Rhodococcus jostii, UniProt Q0SCI3, S235A).
T2 construct: hexaHis (N, cleaved yes); made in house; host or cells: PbdA variant: E. coli BL-21 λ (DE3); PbdB: Rhodococcus jostii RHA1
T2 sequence (Q0SCI3 entry or part of it S235A): as the sequence (Q0SCI3 entry or part of it R82M) above, with M82R, S235A counted along it
Description: Substrate binding to PbdA S237A variant by spectral titration. Further details: species or system Rhodococcus jostii RHA1. The protocol: as §1

Assay [4] concerns the target T1, PbdA R84M. Description: Activity and coupling assay of PbdA R84M variant with PbdB. Type of assay: biochemical, Rhodococcus jostii RHA1. To be noted: air-saturated MOPS (I = 0.1 M), pH 7.2, 25 °C. The protocol:
(§2) For activity measurements 0.25 to 1 μM of PbdA and PbdB were combined in a 200 μl cuvette in 20 mM Mops, pH 7.2 with substrate diluted in the same buffer. NADH was added to 350 μM to initiate the reaction. For HPLC analysis, enzymatic reactions were acidified by adding acetic acid to 10% final concentration, centrifuged (16,000×g for 10 min), and filtered through a 0.2 μm polytetrafluoroethylene membrane. Samples were run over a Luna 5 μm C18(2) 100 Å 150 × 3 mm column (Phenomenex) at 0.7 ml min^−1 by a Waters 2695 separation HPLC module. Samples were eluted with a 16.8 ml linear gradient from 1% methanol plus 0.1% formic acid in water to 100% methanol plus 0.1% formic acid and monitored at 280 nm with a Waters 2996 photodiode array detector. Concentrations were determined by interpolation on a standard curve of 0 to 1 mM of authentic standard. NADH concentration was measured by absorbance at 340 nm, ε = 6.22 mM^-1 cm^-1. Coupling was calculated from the ratio of rate of aromatic turnover, as determined by HPLC, and the rate of NADH oxidation, determined spectroscopically. Buffer ionic strength was adjusted by addition of NaCl, as appropriate. Apparent steady-state kinetic parameters were calculated by fitting Michaelis–Menten equations to initial velocity of reactions at various concentrations of aromatic substrate (LEONORA).
(§3) ^aExperiments were performed using air-saturated MOPS (I = 0.1 M), pH 7.2, at 25 °C. The rate of aromatic substrate turnover was based on the appearance of O-demethylated product. Standard deviation is shown in parentheses.

The target in assay [5] is T3, PbdA (Rhodococcus jostii, UniProt Q0SCI3).
T3 sequence (Q0SCI3 1-400): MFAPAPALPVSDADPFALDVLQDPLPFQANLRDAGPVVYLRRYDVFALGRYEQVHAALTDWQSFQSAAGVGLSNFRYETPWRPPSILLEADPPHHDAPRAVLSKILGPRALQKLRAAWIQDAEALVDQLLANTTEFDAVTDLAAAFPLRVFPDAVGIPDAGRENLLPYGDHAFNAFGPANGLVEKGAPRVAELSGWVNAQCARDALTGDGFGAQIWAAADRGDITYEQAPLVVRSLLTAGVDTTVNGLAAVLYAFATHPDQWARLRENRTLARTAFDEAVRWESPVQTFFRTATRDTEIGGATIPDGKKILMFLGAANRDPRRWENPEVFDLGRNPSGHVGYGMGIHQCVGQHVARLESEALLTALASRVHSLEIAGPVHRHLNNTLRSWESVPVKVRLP
To be noted: WT PbdAB; for NADH depletion rate: air-saturated MOPS (I = 0.1 M), pH 7.2, 25 °C; for NADH depletion rate / Rate of Aromatic turnover: SD in parentheses; for Rate of Aromatic turnover: appearance of O-demethylated product (disappearance of p-EB); for Coupling: ratio of aromatic turnover rate to NADH oxidation rate. The protocol:
We then measured coupling under optimum conditions for other substrates. […] Finally, we measured the apparent steady-state kinetic parameters of the PbdA reaction under conditions of maximal coupling (Fig. S4).
as §2

The target in assay [6] is T3, PbdA. Description: Substrate binding to PbdA (WT) by type I spectral shift titration. Also on record: hexaHis (N, cleaved yes); made in house; host or cells: PbdA: E. coli BL-21 λ (DE3); PbdB: Rhodococcus jostii RHA1. To be noted: WT PbdA; for Kd: 20 mM Mops, I = 0.1 M, pH 7.2, 25 °C, SD in parentheses, read-out: Kd; for %High-spin (percent of heme iron in high-spin state): on substrate binding. The protocol: The affinity of PbdA for various LDACs was measured by the type I spectral shift upon titration of aromatic compound (Fig. 2). This shift occurs as the compound displaces a water coordinated to the heme iron, initiating a spin state transition in the latter from a low spin, hexacoordinate, to a high spin, pentacoordinate form.
Figure 2 Substrate binding of PbdA. A, difference spectra of PbdA titrated with 1 to 50 μM p-MBA from the substrate-free enzyme. Darker colors indicate higher concentration of p-MBA. Spectra were collected after each addition of substrate to 1 μM enzyme in 20 mM Mops, I = 0.1 M, pH 7.2. B, binding isotherm of PbdA and p-MBA. The fitted curve represents a simple hyperbola. p-MBA, para-methoxybenzoate.
as §1

The target of assay [7] is T4, PbdA S87A/S237A (Rhodococcus jostii, UniProt Q0SCI3, S235A/S85A).
T4 construct: hexaHis (N, cleaved yes); made in house; host or cells: PbdA variant: E. coli BL-21 λ (DE3); PbdB: Rhodococcus jostii RHA1
T4 sequence (Q0SCI3 entry or part of it S85A/S235A): as the sequence (Q0SCI3 entry or part of it R82M) above, with M82R, S85A, S235A counted along it
Description: Activity and coupling assay of PbdA S87A/S237A variant with PbdB. The assay is classed as biochemical, Rhodococcus jostii RHA1. As to conditions: air-saturated MOPS (I = 0.1 M), pH 7.2, 25 °C. On the procedure:
as §2, §3

Assay [8] deals with T2, PbdA S237A. The assay can be described thus: Activity and coupling assay of PbdA S237A variant with PbdB. To be noted: air-saturated MOPS (I = 0.1 M), pH 7.2, 25 °C. Type of assay: biochemical, Rhodococcus jostii RHA1. On the procedure: as §2, §3
The target of assay [9] is T4, PbdA S87A/S237A. Description: Substrate binding to PbdA S87A/S237A variant by spectral titration. Also on record: species or system Rhodococcus jostii RHA1. The protocol:
as §1

In assay [10] the target is T5, PbdA S87A (Rhodococcus jostii, UniProt Q0SCI3, S85A).
T5 construct: hexaHis (N, cleaved yes); made in house; host or cells: PbdA variant: E. coli BL-21 λ (DE3); PbdB: Rhodococcus jostii RHA1
T5 sequence (Q0SCI3 entry or part of it S85A): as the sequence (Q0SCI3 entry or part of it R82M) above, with M82R, S85A counted along it
Description: Substrate binding to PbdA S87A variant by spectral titration. Also on record: species or system Rhodococcus jostii RHA1. On the procedure:
as §1

For assay [11], the target named is T5, PbdA S87A. The assay can be described thus: Activity and coupling assay of PbdA S87A variant with PbdB. Type of assay: biochemical, Rhodococcus jostii RHA1. As to conditions: air-saturated MOPS (I = 0.1 M), pH 7.2, 25 °C. On the procedure:
as §2, §3

Where two headings read alike, the source gives them in different places.

In the case of `COc1ccc(C(C)=O)cc1` [p-MAP, p-methoxyacetophenone], the “O-demethylation rate relative to that of p-MBA” value in assay [1] is given as 0.25%. Also, the Kd in assay [2] stood at 8 µM; in assay [3] it was 12 µM; in assay [6], 37 µM; in [9], 8 µM; in [10], 14 µM. For the same compound, the NADH depletion rate was 170 (30) U mg P450^-1 in assay [4]; 117 (6) U mg P450^-1 in assay [5]; 160 (30) U mg P450^-1 in [7]; 220 (6) U mg P450^-1 in [8]; 265 (7) U mg P450^-1 in assay [11]. Also, the “Rate of Aromatic turnover” value in assay [5] was “did not detectably O-demethylate”. In addition, in [6], the “%High-spin (percent of heme iron in high-spin state)” value came out at 2.8%.

In the case of `COc1ccc(C(=O)O)cc1O` [Isovanillate, isovanillate], in [5], the NADH depletion rate is 2200 (200) U mg P450^-1, the “Rate of Aromatic turnover” value is 1600 (100) U mg P450^-1 and the Coupling is given as 75.3 (0.1) %. The Coupling entry in [5] (listed as isovanillate) is “approximately 75%”. In addition, in [6], the dissociation constant Kd is 90 µM and the “%High-spin (percent of heme iron in high-spin state)” value stood at 94%.

As a reminder, the Kd is the equilibrium constant for the complex coming apart.
